Like-named read-outs stand apart in the source and are kept apart here.
Test system: PKC mediated IL-2 production in human primary T cells
Test: IL-2 ELISA, human primary T cell, anti CD3+CD28+ (whole cell functional assay for PKC mediated IL-2 production)
Type: cell-based
Outline: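 IL-2 in supernatants was quantified by ELISA after 24 h at 37 °C. Before stimulation with plate-coated anti-CD3 (1 μg/ml) and anti-CD28 (5 μg/ml), T cells expanded from PBMC were exposed to compound for 1 h; the counter-screen replaced antibodies with PMA 0.5 ng/ml and ionomycin 0.1 μM (final).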

[1] = 24 h, human primary T cells stimulated with anti-CD3 + anti-CD28, IL-2 by ELISA, read-out: IC50 for blocking IL-2 production
[2] = human primary T cells stimulated with anti-CD3 + anti-CD28, 24 h, IL-2 by ELISA, 8 pt, read-out: IL2 ELISA, Human primary T cell, anti-CD3 + CD28, 8 pt (IC50)

IC50 [1] | IC50 [2] | SMILES
< 30000 nM | 832 nM | Cn1nnn(-c2cc(Nc3ncc(Cl)c(NC[C@@H]4CCCN5CCCC[C@H]45)n3)c(F)cc2OC(C)(C)CO)c1=O [Compound 153, 1-(5-((5-chloro-4-((((1S,9aR)-octahydro-2H-quinolizin-1-yl)methyl)amino)pyrimidin-2-yl)amino)-4-fluoro-2-((1-hydroxy-2-methylpropan-2-yl)oxy)phenyl)-4-methyl-1,4-dihydro-5H-tetrazol-5-one]
< 30000 nM | 188 nM | Cn1nnn(-c2cc(Nc3ncc(F)c(NC[C@@H]4CCCN5CCCC[C@H]45)n3)c(F)cc2OCC(C)(C)O)c1=O [Compound 154, 1-(4-fluoro-5-((5-fluoro-4-((((1S,9aR)-octahydro-2H-quinolizin-1-yl)methyl)amino)pyrimidin-2-yl)amino)-2-(2-hydroxy-2-methylpropoxy)phenyl)-4-methyl-1,4-dihydro-5H-tetrazol-5-one]
< 30000 nM | 136 nM | Cn1nnn(-c2cc(Nc3ncc(Cl)c(NC[C@@H]4CCCN5CCCC[C@H]45)n3)c(F)cc2OCC(C)(C)O)c1=O [Compound 155, 1-(5-((5-chloro-4-((((1S,9aR)-octahydro-2H-quinolizin-1-yl)methyl)amino)pyrimidin-2-yl)amino)-4-fluoro-2-(2-hydroxy-2-methylpropoxy)phenyl)-4-methyl-1,4-dihydro-5H-tetrazol-5-one]
< 30000 nM | 27.6 nM | Cn1nnn(-c2cc(Nc3ncc(C#N)c(NC[C@@H]4CCCN5CCCC[C@H]45)n3)c(F)cc2OCC(C)(C)O)c1=O [Compound 156, 2-((2-fluoro-4-(2-hydroxy-2-methylpropoxy)-5-(4-methyl-5-oxo-4,5-dihydro-1H-tetrazol-1-yl)phenyl)amino)-4-((((1S,9aR)-octahydro-2H-quinolizin-1-yl)methyl)amino)pyrimidine-5-carbonitrile]

Source: US9913843B2, “Protein kinase C inhibitors and uses thereof” (Rigel Pharmaceuticals, Inc., priority 2012, dated 2018)
